These results are taken from patent US11058695B2, “Inhibitor of carbapenem-hydrolyzing class D beta-lactamases” (MYONGJI UNIVERSITY INDUSTRY AND ACADEMIA COOPERATION …, priority 2019, dated 2021).

By IC50 is commonly meant the midpoint of a concentration-inhibition curve.

One experiment has as its target OXA-240 (Pseudomonas aeruginosa, UniProt I6VVS5). In words: CHDL enzyme inhibition assay with nitrocefin. In kind it is biochemical, P. aeruginosa. Conditions: OXA-240 383 pM, 100 μM nitrocefin, 5 minute pre-incubation; read-out: IC50 against OXA-240. On the procedure: (§1) The screened 7 compounds were dissolved in 100% DMSO at 10 mM. More diluted stocks were prepared as necessary. OXA-48 activity was determined by monitoring the change of absorbance at 482 nm using the characteristic molecular extinction coefficient (Δε482=15,900 M^−1 cm^−1) of nitrocefin (Oxoid, Hampshire, UK) by a Shimazu UV-1650PC spectrophotometer. Up to 5% DMSO, no influence on the enzyme activity of OXA-48 was observed. The assays were conducted in 10 mM MES (pH 6.8) containing OXA-48 (103 pM), 50 mM NaHCO3, and 20 μg/mL bovine serum albumin. After 5 min of pre-incubation of the purified OXA-48 and each inhibitor at 30° C., the enzymatic reaction was started by adding nitrocefin (100 μM). Residual velocities were determined after 5 minutes. The first 120 s of each reaction was used to measure initial rates. Data were evaluated using Microsoft Excel. Concentration-dependent inhibition of OXA-48 was measured using different concentrations of seven compounds resulting from two-fold dilution series. Reaction progress at every concentration of seven compounds was measured in triplicates. IC50 values were calculated using 4-parameter log fits using XL Fit curve fitting software (www.idbs.com) for Excel using the following equation:
(§2) [formula] where y is the remaining enzyme activity (in %) and x is the corresponding concentration. […]

The target of another experiment is OXA-48 (Klebsiella pneumoniae, UniProt Q6XEC0). In words: OXA-48 enzyme inhibition assay with nitrocefin. Format: biochemical. Conditions: OXA-48 103 pM. On the procedure: as §1, §2
The target in another experiment is OXA-143 (Acinetobacter baumannii, UniProt D0UHC8). Description: CHDL enzyme inhibition assay with nitrocefin. Conditions: OXA-143 96 pM, 100 μM nitrocefin, 5 minute pre-incubation; read-out: IC50 against OXA-143. In kind it is biochemical. On the procedure: as §1
(§3) [formula] where y is the remaining enzyme activity (in %) and x is the corresponding concentration. The fitted IC50 parameter is defined as the concentration giving a response half way between the fitted top (B) and bottom (A) of the curve.
(§4) To investigate the inhibitory effects of the novel inhibitor (PLPBA) against eight CHDLs belonging to six clinically-important CHDL subgroups(member of OXA-23 subgroup: OXA-23; member of OXA-24/40 subgroup: OXA-24/40; member of OXA-48 subgroup: OXA-48; members of OXA-51 subgroup: OXA-51 and OXA-109; member of OXA-58 subgroup: OXA-97; member of OXA-143 subgroup: OXA-143) and five CHDLs belonging to four emerging CHDL subgroups (member of OXA-211 subgroup: OXA-211; members of OXA-229 subgroup: OXA-229 and OXA-418; member of OXA-210 subgroup: OXA-210; and member of OXA-240 subgroup: OXA-240), the IC50 values for them were determined (Table 3). PLPBA was dissolved in 100% DMSO at 10 mM. More diluted stocks were prepared as necessary. Activities of CHDLs were determined by monitoring the change of absorbance at 482 nm. Up to 5% DMSO, no influence on the enzyme activities of CHDLs was observed. Each enzyme (OXA-23, 418 pM; OXA-24/40, 134 pM; OXA-48, 103 pM; OXA-51, 184 nM; OXA-97, 178 pM; OXA-109, 168 nM; OXA-143, 96 pM; OXA-210, 179 pM; OXA-211, 701 pM; OXA-229, 142 pM; OXA-240, 383 pM; OXA-418, 158 pM) was mixed with 100 μM nitrocefin after a 5 minute pre-incubation with PLPBA. The first 120 s of each reaction was used to measure initial rates. Data were evaluated using Microsoft Excel. Reaction progress at every concentration of PLPBA was measured in triplicates.

The target in another experiment is OXA-97 (Acinetobacter baumannii, UniProt A5Y470). In words: CHDL enzyme inhibition assay with nitrocefin. Format: biochemical. Conditions: OXA-97 178 pM, 100 μM nitrocefin, 5 minute pre-incubation; read-out: IC50 against OXA-97. On the procedure: as §1, §3, §4
A further experiment concerns the target OXA-109 (Acinetobacter baumannii, UniProt A8JZR7). Description: CHDL enzyme inhibition assay with nitrocefin. In kind it is biochemical. Conditions: OXA-109 168 nM, 100 μM nitrocefin, 5 minute pre-incubation; read-out: IC50 against OXA-109. On the procedure:
as §1, §3, §4

A further experiment concerns the target OXA-51 (Acinetobacter baumannii, UniProt Q5QT35). Description: CHDL enzyme inhibition assay with nitrocefin. Conditions: OXA-51 184 nM, 100 μM nitrocefin, 5 minute pre-incubation; read-out: IC50 against OXA-51. In kind it is biochemical. On the procedure: as §1, §3, §4
The next experiment addresses OXA-210 (Pseudomonas aeruginosa, UniProt F6ME16). In words: CHDL enzyme inhibition assay with nitrocefin. In kind it is biochemical. As to the method: as §1, §3, §4
The next experiment concerns the target OXA-24/40 (Acinetobacter baumannii, UniProt Q8RLA6). Description: CHDL enzyme inhibition assay with nitrocefin. In kind it is biochemical. On the procedure: as §1, §3, §4
For the next experiment, the target named is OXA-229 (Acinetobacter bereziniae, UniProt I6S7G0). Description: CHDL enzyme inhibition assay with nitrocefin. In kind it is biochemical. Conditions: OXA-229 142 pM, 100 μM nitrocefin, 5 minute pre-incubation; read-out: IC50 against OXA-229. As to the method:
as §1, §3, §4

A further experiment has as its target OXA-211 (Acinetobacter johnsonii, UniProt G9JKV7). Description: CHDL enzyme inhibition assay with nitrocefin. In kind it is biochemical. Conditions: OXA-211 701 pM, 100 μM nitrocefin, 5 minute pre-incubation; read-out: IC50 against OXA-211. On the procedure:
as §1, §3, §4

A further experiment has as its target OXA-23 (Acinetobacter baumannii, UniProt Q9L4P2). In words: CHDL enzyme inhibition assay with nitrocefin. Format: biochemical. Conditions: OXA-23 418 pM, 100 μM nitrocefin, 5 minute pre-incubation; read-out: IC50 against OXA-23. On the procedure: as §1, §3, §4

Like-named read-outs stand apart in the source and are kept apart here.

Chain of OXA-48 (Q6XEC0 24-265 limits assumed, looked up): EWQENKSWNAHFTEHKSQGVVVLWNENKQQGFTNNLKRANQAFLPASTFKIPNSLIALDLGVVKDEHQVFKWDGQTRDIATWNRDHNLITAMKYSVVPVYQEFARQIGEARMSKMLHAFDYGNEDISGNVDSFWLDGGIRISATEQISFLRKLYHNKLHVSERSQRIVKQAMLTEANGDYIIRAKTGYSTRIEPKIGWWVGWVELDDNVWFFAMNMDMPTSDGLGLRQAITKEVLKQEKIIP
Chain of OXA-210 (F6ME16 entry or part of it): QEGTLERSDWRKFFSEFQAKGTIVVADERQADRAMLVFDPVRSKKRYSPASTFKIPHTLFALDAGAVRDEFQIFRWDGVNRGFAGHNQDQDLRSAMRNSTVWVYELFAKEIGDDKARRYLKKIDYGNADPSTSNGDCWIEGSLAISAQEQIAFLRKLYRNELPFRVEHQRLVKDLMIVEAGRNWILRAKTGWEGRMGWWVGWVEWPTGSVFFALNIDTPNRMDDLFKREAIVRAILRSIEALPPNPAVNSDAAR
Chain of OXA-143 (D0UHC8 entry or part of it): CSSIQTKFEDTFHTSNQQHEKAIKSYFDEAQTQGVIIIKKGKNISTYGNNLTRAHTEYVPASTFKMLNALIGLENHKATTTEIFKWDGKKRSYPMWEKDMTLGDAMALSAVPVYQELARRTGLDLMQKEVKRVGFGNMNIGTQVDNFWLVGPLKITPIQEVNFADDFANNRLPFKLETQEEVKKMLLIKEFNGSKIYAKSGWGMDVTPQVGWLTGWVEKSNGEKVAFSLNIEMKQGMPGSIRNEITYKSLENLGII
Chain of OXA-229 (I6S7G0 entry or part of it): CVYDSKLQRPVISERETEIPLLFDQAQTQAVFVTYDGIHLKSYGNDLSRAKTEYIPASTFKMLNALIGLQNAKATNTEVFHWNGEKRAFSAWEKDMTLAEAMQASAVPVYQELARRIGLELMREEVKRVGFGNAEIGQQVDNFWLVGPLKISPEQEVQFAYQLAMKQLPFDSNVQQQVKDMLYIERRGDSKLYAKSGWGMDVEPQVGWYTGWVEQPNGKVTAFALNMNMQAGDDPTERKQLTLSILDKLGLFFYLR
Chain of OXA-240 (I6VVS5 21-266 limits assumed): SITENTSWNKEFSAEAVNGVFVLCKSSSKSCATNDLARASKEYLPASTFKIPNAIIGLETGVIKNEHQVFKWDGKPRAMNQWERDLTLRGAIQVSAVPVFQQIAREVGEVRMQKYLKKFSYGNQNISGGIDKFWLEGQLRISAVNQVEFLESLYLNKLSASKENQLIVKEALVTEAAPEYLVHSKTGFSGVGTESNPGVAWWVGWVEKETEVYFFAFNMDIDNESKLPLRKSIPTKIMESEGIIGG
Chain of OXA-211 (G9JKV7 entry or part of it): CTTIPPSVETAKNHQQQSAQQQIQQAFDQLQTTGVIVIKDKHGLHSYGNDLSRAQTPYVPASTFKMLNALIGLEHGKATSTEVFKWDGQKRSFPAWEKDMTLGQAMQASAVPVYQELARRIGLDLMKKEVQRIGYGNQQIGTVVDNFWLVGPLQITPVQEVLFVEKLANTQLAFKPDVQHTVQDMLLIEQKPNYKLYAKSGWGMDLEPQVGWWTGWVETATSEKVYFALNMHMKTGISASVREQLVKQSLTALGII
Chain of OXA-24/40 (Q8RLA6 entry or part of it): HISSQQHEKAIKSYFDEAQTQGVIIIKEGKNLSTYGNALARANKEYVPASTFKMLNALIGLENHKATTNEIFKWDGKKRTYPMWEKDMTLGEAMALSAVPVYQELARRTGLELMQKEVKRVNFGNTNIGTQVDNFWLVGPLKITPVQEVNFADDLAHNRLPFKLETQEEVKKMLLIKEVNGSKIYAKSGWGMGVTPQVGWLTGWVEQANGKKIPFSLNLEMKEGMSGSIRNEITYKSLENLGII
Chain of OXA-23 (Q9L4P2 31-273 limits assumed): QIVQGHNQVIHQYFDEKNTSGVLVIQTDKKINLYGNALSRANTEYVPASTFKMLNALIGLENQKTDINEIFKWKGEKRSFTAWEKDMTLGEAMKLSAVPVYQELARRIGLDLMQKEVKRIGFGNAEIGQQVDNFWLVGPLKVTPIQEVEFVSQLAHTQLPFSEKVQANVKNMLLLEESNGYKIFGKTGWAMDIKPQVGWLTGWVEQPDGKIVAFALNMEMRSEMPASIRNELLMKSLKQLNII
Chain of OXA-51 (Q5QT35 entry or part of it): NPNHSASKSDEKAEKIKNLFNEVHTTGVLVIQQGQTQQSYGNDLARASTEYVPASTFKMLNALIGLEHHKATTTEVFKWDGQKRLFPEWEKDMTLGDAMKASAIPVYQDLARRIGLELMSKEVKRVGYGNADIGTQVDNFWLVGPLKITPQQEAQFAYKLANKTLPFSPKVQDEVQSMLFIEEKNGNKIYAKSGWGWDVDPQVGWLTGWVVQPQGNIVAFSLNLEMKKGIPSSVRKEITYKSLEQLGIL
Chain of OXA-109 (A8JZR7 entry or part of it): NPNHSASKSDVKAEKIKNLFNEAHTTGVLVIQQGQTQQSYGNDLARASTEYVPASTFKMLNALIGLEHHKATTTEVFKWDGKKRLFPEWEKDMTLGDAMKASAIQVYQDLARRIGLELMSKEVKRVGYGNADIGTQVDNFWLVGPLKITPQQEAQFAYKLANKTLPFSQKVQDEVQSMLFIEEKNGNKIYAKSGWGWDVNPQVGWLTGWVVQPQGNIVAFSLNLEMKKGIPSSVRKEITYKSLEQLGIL
Chain of OXA-97 (A5Y470 entry or part of it): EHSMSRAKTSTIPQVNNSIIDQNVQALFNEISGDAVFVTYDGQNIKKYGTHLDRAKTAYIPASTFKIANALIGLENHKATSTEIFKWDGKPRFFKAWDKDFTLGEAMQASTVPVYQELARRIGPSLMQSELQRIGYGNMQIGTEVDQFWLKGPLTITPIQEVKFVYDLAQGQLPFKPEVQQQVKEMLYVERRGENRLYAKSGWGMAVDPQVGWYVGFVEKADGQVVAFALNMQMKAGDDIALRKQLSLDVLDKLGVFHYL

`OB(O)c1cccc(OCCc2ccccc2)c1` [Compound 1, [3-(2-Phenylethoxy)phenyl]boronic Acid]: the IC50 is 218.59 ± 0.03 µM at OXA-240; 155 µM on OXA-48 (nitrocefin 100 μM, 5 min pre-incubation at 30° C., 10 mM MES pH 6.8, read-out: IC50 values on OXA-48 of the screened compounds); 154.84 ± 0.02 µM on OXA-48 (Table 3, 100 μM nitrocefin, 5 minute pre-incubation, read-out: IC50 against OXA-48); 91.79 ± 0.01 µM on OXA-143; 189.02 ± 0.01 µM at OXA-97; 864.59 ± 0.02 µM on OXA-109. In addition, the IC50 worked out at 594.73 ± 0.01 µM on OXA-51; 218.79 ± 0.02 µM against OXA-210; 384.73 ± 0.02 µM at OXA-24/40; 171.93 ± 0.01 µM on OXA-229; 238.51 ± 0.01 µM on OXA-211; 275.54 ± 0.02 µM at OXA-23.
